We go through 36 compounds from US20050009840A1 (SUGEN, INC., priority 2003, published 2005).

Where a name gives a salt, the structure may show the parent alone. Read-outs that look alike come from different tables or passages of the source.

The experiment has as its target T1, Met kinase domain (GST fusion protein) (Homo sapiens, UniProt P08581).
T1 construct: Purified GST fusion protein containing the Met kinase domain
Kind of experiment: Met transphosphorylation assay (ELISA, poly(glu-tyr) substrate).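 Note: Cell-free ELISA with plate-bound poly(Glu:Tyr 4:1) phosphorylated by GST-fused Met kinase domain plus ATP and Mn2+, phosphotyrosine detected by anti-phosphotyrosine antibody with HRP and ABTS read-out.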 The class given is biochemical. To be noted: read-out: Met IC50.

Setting [1] is: plain numbers in column Met IC50 (μM) of Table 2.

For orientation: IC50 means the point on the concentration scale where inhibition reaches its midpoint.

T1 sequence (P08581 1078-1345 limits assumed): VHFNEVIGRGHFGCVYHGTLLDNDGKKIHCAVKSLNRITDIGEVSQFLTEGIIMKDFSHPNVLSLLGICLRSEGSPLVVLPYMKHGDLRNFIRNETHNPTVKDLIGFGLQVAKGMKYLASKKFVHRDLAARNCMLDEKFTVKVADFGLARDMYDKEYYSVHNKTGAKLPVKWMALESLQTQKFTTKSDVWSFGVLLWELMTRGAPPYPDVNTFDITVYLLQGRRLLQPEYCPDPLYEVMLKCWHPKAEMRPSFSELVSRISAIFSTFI

For the compound `CC(=O)N1CCN(C(=O)c2ccc(-c3cnc(N)c(OCc4ccc(Cl)cc4Cl)c3)cc2)CC1` [Example I-178, 1-(4-{4-[6-Amino-5-(2,4-dichloro-benzyloxy)-pyridin-3-yl]-benzoyl}-piperazin-1-yl)-ethanone], the IC50 stood at 1.67 µM.
For `CC(Oc1cc(-c2ccc(C(=O)NC3CCN(C)CC3)cc2)cnc1N)c1c(Cl)cccc1Cl` (stereo not drawn) [Example I-403, 4-{6-Amino-5-[1-(2,6-dichloro-phenyl)-ethoxy]-pyridin-3-yl}-N-(1-methyl-piperidin-4-yl)-benzamide], the IC50 under setting [1] stood at 0.062 µM.
On the same count and under the same terms, then `CC(Oc1cc(-c2cccc(C(=O)N3C[C@@H](C)N[C@@H](C)C3)c2)cnc1N)c1c(Cl)cccc1Cl` (stereo partly drawn) [Example I-387, (3-{6-Aminno-5-[1-(2,6-dichloro-phenyl)-ethoxy]-pyridin-3-yl}-phenyl)-((3R,5S)-3,5-dimethyl-piperazin-1-yl)-methanone], with 0.16 µM.
In the case of `CC(Oc1nc(-c2ccc(C(=O)NC[C@@H](O)CN3CCOCC3)cc2)cnc1N)c1c(Cl)ccc(F)c1Cl` (stereo partly drawn) [II-149, 4-{5-Amino-6-[1-(2,6-dichloro-3-fluoro-phenyl)-ethoxy]-pyrazin-2-yl}-N-((R)-2-hydroxy-3-morpholin-4-yl-propyl)-benzamide], the IC50 worked out at 0.13 µM.
As for `CC(Oc1cc(-c2cccc(C(=O)NCCCN3CCCC3)c2)cnc1N)c1c(F)ccc(F)c1Cl` (stereo not drawn) [Example I-347, 3-{6-Amino-5-[1-(2-chloro-3,6-difluoro-phenyl)-ethoxy]-pyridin-3-yl}-N-(3-pyrrolidin-1-yl-propyl)-benzamide], the half-inhibitory concentration (IC50) (Table 2) was determined as 0.21 µM.
Regarding `CC(Oc1nc(-c2cccc(C(=O)NC[C@H](O)CN3CCOCC3)c2)cnc1N)c1c(Cl)ccc(F)c1Cl` (stereo partly drawn) [II-137, 3-{5-Amino-6-[1-(2,6-dichloro-3-fluoro-phenyl)-ethoxy]-pyrazin-2-yl}-N-((S)-2-hydroxy-3-morpholin-4-yl-propyl)-benzamide], the IC50 was 0.3 µM.
Regarding `CC(=O)N1CCN(C(=O)c2ccc(-c3cnc(N)c(OCc4ccc(C(C)(C)C)cc4)c3)cc2)CC1` [Example I-198, 1-(4-{4-[6-Amino-5-(4-tert-butyl-benzyloxy)-pyridin-3-yl]-benzoyl}-piperazin-1-yl)-ethanone], where the note is “Table 2”, the IC50 was 3 µM.
Consider `Nc1ncc(-c2cccc(C(=O)NCCCN3CCCC3)c2)nc1OCc1c(F)ccc(F)c1Cl` [II-60, 3-[5-Amino-6-(2-chloro-3,6-difluoro-benzyloxy)-pyrazin-2-yl]-N-(3-pyrrolidin-1-yl-pyropyl)-benzamide], for which the IC50 came out at 1.48 µM.
Same read-out and setting: then `CC(Oc1nc(-c2ccc(C(=O)NC3CCN(C)CC3)cc2)cnc1N)c1c(Cl)ccc(F)c1Cl` (stereo not drawn) [II-150, 4-{5-Amino-6-[1-(2,6-dichloro-3-fluoro-phenyl)-ethoxy]-pyrazin-2-yl}-N-(1-methyl-piperidin-4-yl)-benzamide], with 0.068 µM; and `Nc1ncc(-c2cccc(NS(=O)(=O)CCN3CCN(C(=O)CO)CC3)c2)nc1OCc1c(F)ccc(F)c1Cl` [II-29], with 1.82 µM.
On to `Nc1ccc(-c2cnc(N)c(OCc3ccccc3Cl)c2)cn1` [Example I-495, 5-(2-Chloro-benzyloxy)-[3,3′]bipyridinyl-6,6′-diamine], for which the IC50 under setting [1] came to 4.31 µM.
As to `Nc1ccc(-c2cnc(N)c(OCc3c(Cl)cccc3Cl)c2)cc1` [Example I-12, 5-(4-Amino-phenyl)-3-(2,6-dichloro-benzyloxy)-pyridin-2-ylamine], the IC50 is 0.606 µM.
On to `Nc1ncc(-c2ccc(OCCN3CCOCC3)cc2)cc1OCc1c(F)ccc(F)c1Cl` [Example I-108, 3-(2-Chloro-3,6-difluoro-benzyloxy)-5-[4-(2-morpholin-4-yl-ethoxy)-phenyl]-pyridin-2-ylamine], for which the IC50 stood at 0.21 µM.
Turning to `CC(Oc1cc(-c2cccc(C(=O)N3C[C@@H](C)N[C@@H](C)C3)c2)cnc1N)c1c(F)ccc(F)c1Cl` (stereo partly drawn) [Example I-343], the IC50 (Table 2) was 0.16 µM.
Same read-out and setting: then `Nc1ncc(-c2ccc(C(=O)N3CC[C@H](N)C3)cc2)cc1OCc1ccc(F)cc1Cl` [Example I-206, {4-(6-Amino-5-(2-chloro-4-fluoro-benzyloxy)-pyridin-3-yl]-phenyl}-[(3S)-3-amino-pyrrolidin-1-yl]-methanone], with 1.83 µM; and `CN1CCN(C(=O)c2ccc(-c3cnc(N)c(OCc4c(F)ccc(F)c4Cl)c3)cc2)CC1` [Example I-212, {4-[6-Amino-5-(2-chloro-3,6-difluoro-benzyloxy)-pyridin-3-yl]-phenyl}-(4-methyl-piperazin-1-yl)-methanone], with 0.063 µM.
With `Nc1ncc(-c2cncnc2)cc1OCc1ccccc1` [Example I-490, 3-Benzyloxy-5-pyrimidin-5-yl-pyridin-2-ylamine], the IC50 under setting [1] is over 20 µM.
Consider `CC(Oc1cc(-c2ccc(OCCN3CCCC3)cc2)cnc1N)c1c(Cl)ccc(F)c1Cl` (stereo not drawn) [Example I-355, 3-[1-(2,6-Dichloro-3-fluoro-phenyl)-ethoxy]-5-[4-(2-pyrrolidin-1-yl-ethoxy)-phenyl]-pyridin-2-ylamine], for which the 50% inhibitory concentration (IC50) (Table 2) amounted to 0.068 µM.
Regarding `Nc1ncc(-c2cccc(C(=O)NCCN3CCCC3)c2)nc1OCc1c(F)ccc(F)c1Cl` [II-55, 3-[5-Amino-6-(2-chloro-3,6-difluoro-benzyloxy)-pyrazin-2-yl]-N-(2-pyrrolidin-1-yl-ethyl)-benzamide], the IC50 turned out to be 1.6 µM.
Still for that read-out and setting: then `CC(Oc1nc(-c2ccc(C(=O)N3CCC[C@H]3CN3CCCC3)cc2)cnc1N)c1c(F)ccc(F)c1Cl` (stereo partly drawn) [II-113, (4-{5-Amino-6-[1-(2-chloro-3,6-difluoro-phenyl)-ethoxy]-pyrazin-2-yl}-phenyl)-((S)-2-pyrrolidin-1-ylmethyl-pyrrolidin-1-yl)-methanone], with 0.18 µM; and `CC(Oc1nc(-c2cc(C(=O)N3CCN(C)CC3)ccn2)cnc1N)c1c(Cl)ccc(F)c1Cl` (stereo not drawn) [II-203, (2-{5-Amino-6-[1-(2,6-dichloro-3-fluoro-phenyl)-ethoxy]-pyrazin-2-yl}-pyridin-4-yl)-(4-methyl-piperazin-1-yl)-methanone], with 0.18 µM; and `CN1CCC(c2c[nH]c3ccc(-c4cnc(N)c(OCc5c(Cl)cccc5Cl)c4)cc23)CC1` [Example I-60, 3-(2,6-Dichloro-benzyloxy)-5-[3-(1-methyl-piperidin-4-yl)-1H-indol-5-yl]-pyridin-2-ylamine], with 3.04 µM.
Regarding `N#Cc1ccccc1COc1cc(-c2ccc(C(=O)N3CC[C@H](N)C3)cc2)cnc1N` [Example I-164], the IC50 is 2.05 µM.
Consider `Nc1ncc(-c2ccc3[nH]c(C(=O)O)cc3c2)cc1OCc1c(Cl)cccc1Cl` [Example I-77, 5-[6-Amino-5-(2,6-dichloro-benzyloxy)-pyridin-3-yl]-1H-indole-2-carboxylic acid], for which the IC50 was 1.62 µM.
With `Nc1ncc(-c2ccc3[nH]c(C(=O)N4CC[C@H](N)C4)cc3c2)cc1OCc1c(Cl)cccc1Cl` [Example I-84, {5-(6-Amino-5-(2,6-dichloro-benzyloxy)-pyridin-3-yl]-1H-indol-2-yl}-[(3S)-amino-pyrrolidin-1-yl]-methanone], the IC50 worked out at 0.14 µM.
With `CC(Oc1cc(-c2ccc(NC(=O)N3CC[C@@H](N)C3)cc2)cnc1N)c1c(F)ccc(F)c1Cl` (stereo partly drawn) [Example I-379, (R)-3-Amino-pyrrolidine-1-carboxylic acid (4-{6-amino-5-[1-(2-chloro-3,6-difluoro-phenyl)-ethoxy]-pyridin-3-yl}-phenyl)-amide], under setting [1], the IC50 came out at 0.069 µM.
Same read-out and setting: the figure for `CC(Oc1cc(-c2ccccn2)cnc1N)c1c(Cl)ccc(F)c1Cl` (stereo not drawn) [Example I-523, 5′-[1-(2,6-Dichloro-3-fluoro-phenyl)-ethoxy]-[2,3′]bipyridinyl-6′-ylamine] is 0.0677 µM.
On to `Nc1ncc(-c2ccc(OCC(=O)N3CCC[C@H]3CN3CCCC3)cc2)cc1OCc1c(F)cccc1F` [Example I-127, 2-{4-[6-Amino-5-(2,6-difluoro-benzyloxy)-pyridin-3-yl]-phenoxy}-1-[(2S)-2-pyrrolidin-1-ylmethyl-pyrrolidin-1-yl]-ethanone], for which the IC50 amounted to 5.43 µM.
With `CC(Oc1nc(-c2ccc(C(=O)N3C[C@@H](C)N[C@@H](C)C3)cc2)cnc1N)c1c(F)ccc(F)c1Cl` (stereo partly drawn) [II-112], the half-inhibitory concentration (IC50) came out at 0.19 µM.
Regarding `Nc1ncc(-c2ccc(C(=O)NCCN3CCOCC3)cc2)nc1OCc1cccc(F)c1C(F)(F)F` [II-94, 4-[5-Amino-6-(3-fluoro-2-trifluoromethyl-benzyloxy)-pyrazin-2-yl]-N-(2-morpholin-4-yl-ethyl)-benzamide], the IC50 amounted to 0.22 µM.
`CC(Oc1nc(-c2ccc(C(=O)N3CCC(N4CCCC4)CC3)cc2)cnc1N)c1c(F)ccc(F)c1Cl` (stereo not drawn) [II-111, (4-{5-Amino-6-[1-(2-chloro-3,6-difluoro-phenyl)-ethoxy]-pyrazin-2-yl}-phenyl)-(4-pyrrolidin-1-yl-piperidin-1-yl)-methanone]: the IC50 came to 0.17 µM.
For the compound `CC(Oc1nc(-c2cccc(C(=O)N3CC[C@@H](N)C3)c2)cnc1N)c1c(Cl)cccc1Cl` (stereo partly drawn) [II-180, (3-{5-Amino-6-[1-(2,6-dichloro-phenyl)-ethoxy]-pyrazin-2-yl}-phenyl)-((R)-3-amino-pyrrolidin-1-yl)-methanone hydrochloride salt], the IC50 is 0.18 µM.
For the compound `CC(Oc1cc(-c2cccc(C(=O)N3CC[C@@H](N)C3)c2)cnc1N)c1c(Cl)ccc(F)c1Cl` (stereo partly drawn) [Example I-293], the IC50 (Table 2) came out at 0.051 µM.
For `CN(C)[C@@H]1CCN(C(=O)c2ccc(-c3cnc(N)c(OCc4c(Cl)cccc4Cl)c3)cc2)C1` [Example I-44, {4-[6-Amino-5-(2,6-dichloro-benzyloxy)-pyridin-3-yl]-phenyl}-[(3R)-3-dimethylamino-pyrrolidin-1-yl]-methanone], the IC50 was 0.65 µM.
Consider `CC(Oc1cc(-c2ccc(C(=O)N3C[C@@H](C)N[C@@H](C)C3)cc2)cnc1N)c1c(F)ccc(F)c1Cl` (stereo partly drawn) [Example I-335, (4-{6 Amino-5-[1-(2-chloro-3,6-difluoro-phenyl)-ethoxy]-pyridin-3-yl}-phenyl)-((3R,5S)-3,5-dimethyl-piperazin-1-yl)-methanone], for which the IC50 (Table 2) turned out to be 0.09 µM.
In the case of `CC(Oc1cc(C#CCNC(=O)N2CCC[C@@H]2CN2CCCC2)cnc1N)c1c(Cl)ccc(F)c1Cl` (stereo partly drawn) [Example I-421], the concentration for half-maximal inhibition (IC50) under setting [1] is 0.071 µM.
